# In patent publication US20220008365A1, “Treating Intraocular Retinoblastoma with Inhibitors of Histone Modification” (Vanderbilt University, priority 2018, published 2022):
# Entries after “also recorded” stand apart in the source; their conditions may differ.
# Tests used:
# [1] = test system: human WERI-Rb1 retinoblastoma xenografts (vitreous seeds); assay: rabbit model of retinoblastoma vitreous seeds, intravitreal treatment, quantification of seed burden; assay type: in vivo; conditions: for reduction in tumor cells / tumor burden compared to saline: 3 weekly intravitreal injections (belinostat 350 μg; melphalan 25 μg), eyes harvested two weeks after final injection
# Protocol: (§1) For the first small animal IAC model developed by the inventors and referenced above, the rabbit's dominant ophthalmic artery was endovascularly cannulated, and each drug was injected at various doses. For intravitreal experiments, 1-3 weekly injections of each drug were performed. For the assessment of ocular toxicity described above, the testing platform the inventors developed included a broad array of tests including assessment of retinal structure and function by electroretinography, photography, fluorescein angiography, OCT, and OCT-Angiography, both before and after treatment. Human WERI-Rb1 retinoblastoma xenografts were treated with either intravenous, intra-arterial, or intravitreal chemotherapy. Assessment of efficacy against vitreous seeds was by both direct quantification of seed burden (vitreous harvesting and cell counting) and by assessment of apoptosis induction by immunohistochemistry.
# To determine efficacy and toxicity of intravitreal HDAC inhibitors for retinoblastoma treatment, vitreous seeds were generated in cyclosporine-immunosuppressed rabbits. 1,000,000 human WERI-Rb1 human retinoblastoma cells were injected into each eye. The seeds were allowed to grow for two weeks to form the types of “spherules” seen clinically with vitreous seeds. 350 μg belinostat injections were used (equivalent to approximately 700 μg in a human-sized eye). The right eye was injected with belinostat three times, weekly. The left eye was injected with saline three times, weekly. The eyes were harvested for analysis two weeks after the final injection, and subjected to the cell quantification and apoptosis induction assays described in the above paragraph.
# To compare the efficacy of an embodiment of the present invention with melphalan treatment, rabbit eyes were treated with 3 weekly injections of 350 μg belinostat by local (intravitreal) injection as described above. The melphalan comparator group received 3 weekly injections of 25 μg melphalan (the clinically-used dose) by intravitreal injection. Eyes were harvested two weeks after the final injection. […]
# [2] = test system: rabbit eye (retinal function); assay: retinal function by electroretinography after intravitreal injections; assay type: in vivo
# Protocol: as §1
# We next wanted to use the toxicity assessment platform that we have developed previously (described above) to compare the toxicity of belinostat (in accordance with the present invention) to current standard-of-care melphalan. As with the efficacy experiments, rabbits received either 3 injections (weekly) of belinostat 350 μg (the effective dose in our rabbit model), or else belinostat 700 μg (double the clinically-effective dose in our rabbit model), or else melphalan 25 μg (the current, clinically-used dose).
# [3] = test system: rabbit eye (retina); assay: retinal histopathology after intravitreal injections; assay type: in vivo; conditions: 3 weekly intravitreal injections; belinostat 350 μg or 700 μg; melphalan 25 μg
# Protocol: as §1
# The retina looks just as healthy as the saline-treated control eye.
# [4] = intra-arterial melphalan, patients; cited from earlier work
# [5] = test system: human retinoblastoma cells; assay: killing of human retinoblastoma cells in cell culture; assay type: cell-based; conditions: for killing of human retinoblastoma cells by a brief pulse of HDAC inhibitor: brief pulse exposure, multiple concentrations
# Protocol: (§2) The present inventors have additionally determined the pharmacokinetics of belinostat when injected directly into the vitreous of the rabbit eye and have calculated its intraocular half-life in vivo. […] Specifically, once the PK curve of intravitreally-injected belinostat was determined and the half-life calculated, human retinoblastoma cells were incubated in cell culture in media containing varying concentrations of belinostat for a length of time equivalent to 5 intraocular half-lives, the media was then replaced with belinostat-free media and incubated for 7 days, and the number of surviving cells was then determined. Then, as an example, the present inventors back-calculated the initial intravitreal injection dose that would ensure that a concentration equal to or above the in vitro IC90 would be achieved even out to 5 half-lives, in vivo.
# [6] = intraocular pharmacokinetics after local administration; assay type: in vivo, rabbit; conditions: local administration routes (intravitreal, intra-arterial)
# Protocol: as §2
compound,measurement,setting,value
N[C@@H](Cc1ccc(N(CCCl)CCCl)cc1)C(=O)O [melphalan],reduction in tumor cells / tumor burden compared to saline,[1],93%
same,retinal toxicity or structural damage,"[2]; intravitreal injection, dose not given",retinal structural damage
same,reduction in measured retinal function (electroretinography amplitudes),"[2]; intravitreal melphalan 25 μg, 3 weekly injections, across all parameters measured",66-90%
same,retinal architecture on histopathology,[3],severe atrophy of the retina; also recorded: evidence of retinal degeneration
same,rates of complications,[4],~40%
Nc1ccccc1NC(=O)c1ccc(CNC(=O)OCc2cccnc2)cc1 [etinostat],killing of human retinoblastoma cells by a brief pulse of HDAC inhibitor,[5],can be killed by exposure to a brief pulse
Cc1[nH]c2ccccc2c1CCNCc1ccc(/C=C/C(=O)NO)cc1 [panobinostat],killing of human retinoblastoma cells by a brief pulse of HDAC inhibitor,[5],can be killed by exposure to a brief pulse
"O=C(/C=C/c1cccc(S(=O)(=O)Nc2ccccc2)c1)NO [belinostat, N hydroxy-3-(3-phenylsulfamoyl-phenyl)-acrylamide]","response of vitreous tumor seeds (photographs, FIG. 1)","[1]; 350 μg belinostat intravitreal, three times weekly, vs saline-treated left eye",eradication of retinoblastoma vitreous seeds
same,reduction in tumor cells / tumor burden compared to saline,[1],95%
same,ERG parameters (retinal function),"[2]; intravitreal belinostat 700 μg (double the clinically-effective dose), 3 weekly injections",only mild worsening of ERG parameters
same,"retinal functional loss and toxicity (A wave and B wave amplitude, FIG. 3)","[2]; rabbit, in vivo",(absence of) retinal functional loss
same,retinal toxicity or structural damage,"[2]; rabbit, in vivo",no such retinal toxicity or structural damage
same,retinal architecture on histopathology,[3],retained normal retinal architecture and healthy-appearing retina; also recorded: no evidence of retinal degeneration
same,killing of human retinoblastoma cells by a brief pulse of HDAC inhibitor,[5],can be killed by exposure to a brief pulse
same,killing of human retinoblastoma cells in vitro,[5]; in vitro,effective for killing human retinoblastoma cells in vitro
same,intraocular concentrations,[6],"very high intraocular concentrations, but of very brief duration"
